Laboratory results: patent US11986471B2, “Compounds and methods of use” (Tango Therapeutics, Inc., priority 2018, dated 2024)

What was measured:
PRMT5 [1] = molecular target: T1, PRMT5 (Homo sapiens, UniProt O14744); experiment: PRMT5 IC50 assay with no cofactor; format: biochemical
T1 construct: purchased Viva (custom protein)
Procedure, shortened: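 Potency against PRMT5 is compared across cofactor states, where IC50 equals Ki×1.5 with SAM present and Ki×13.5 with MTA present.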

PRMT5 [2] = molecular target: T1, PRMT5; experiment: PRMT5 IC50 assay in the presence of SAM as cofactor; format: biochemical
Procedure, shortened: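 IC50 values were measured against human PRMT5 with SAM, with MTA, or with no cofactor. Ki was derived from IC50 as Ki=IC50/1.5 with SAM and Ki=IC50/13.5 with MTA, and the Ki(SAM)/Ki(MTA) ratio was then taken.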

PRMT5 [3] = molecular target: T1, PRMT5; experiment: PRMT5 IC50 assay in the presence of MTA as cofactor; format: biochemical; conditions: for IC50: PRMT5, MTA as cofactor; for SAM/MTA Ratio: ratio between the Ki in the presence of SAM and the Ki in the presence of MTA
Procedure, shortened: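 Ki conversion: SAM arm, Ki=IC50/1.5; MTA arm, Ki=IC50/13.5. No-cofactor arm reported as IC50 only. Selectivity expressed as Ki(SAM)/Ki(MTA).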

HAP1 MTAP-intact = experiment: SDMA in-cell western assay, HAP1 MTAP-intact cell line; format: cell-based; conditions: Homo sapiens
Procedure, shortened: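 Symmetric dimethylarginine (SDMA) levels were measured by in-cell western in an isogenic HAP1 pair, one expressing endogenous MTAP and one MTAP-null, and IC50 values were derived for each line. Compounds whose IC50 ratio between the lines is 3-fold or more are classed as MTAP-selective.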

HAP1 MTAP-deleted = experiment: SDMA in-cell western assay, HAP1 MTAP-deleted cell line; format: cell-based; conditions: for IC50: Homo sapiens, HAP1 MTAP-deleted cell line; for MTAP Intact/Deleted Ratio: IC50 ratio HAP1 MTAP-intact / HAP1 MTAP-deleted
Procedure, shortened: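 Symmetric dimethylarginine (SDMA) levels were measured by in-cell western in MTAP-null HAP1 cells, one half of an MTAP-isogenic pair whose partner line expresses endogenous MTAP. Compound potency is reported as IC50.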

T1 sequence (O14744 whole entry): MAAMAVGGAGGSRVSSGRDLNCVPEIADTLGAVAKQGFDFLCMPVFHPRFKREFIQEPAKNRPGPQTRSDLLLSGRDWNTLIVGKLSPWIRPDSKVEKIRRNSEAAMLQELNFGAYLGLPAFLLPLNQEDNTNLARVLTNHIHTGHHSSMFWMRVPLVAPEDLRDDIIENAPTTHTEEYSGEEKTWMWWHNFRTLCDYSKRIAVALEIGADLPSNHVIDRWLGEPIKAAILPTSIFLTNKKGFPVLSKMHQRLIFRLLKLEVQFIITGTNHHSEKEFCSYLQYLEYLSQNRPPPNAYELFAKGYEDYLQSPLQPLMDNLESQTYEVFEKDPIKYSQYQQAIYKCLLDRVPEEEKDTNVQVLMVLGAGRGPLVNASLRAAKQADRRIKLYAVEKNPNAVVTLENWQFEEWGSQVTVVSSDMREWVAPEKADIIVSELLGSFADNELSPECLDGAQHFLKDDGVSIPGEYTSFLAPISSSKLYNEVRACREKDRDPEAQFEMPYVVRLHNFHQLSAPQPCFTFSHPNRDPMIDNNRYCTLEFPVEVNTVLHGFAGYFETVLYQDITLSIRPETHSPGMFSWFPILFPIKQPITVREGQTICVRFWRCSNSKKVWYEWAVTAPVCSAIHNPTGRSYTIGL
T1 sequence (Q9BQA1 whole entry partner): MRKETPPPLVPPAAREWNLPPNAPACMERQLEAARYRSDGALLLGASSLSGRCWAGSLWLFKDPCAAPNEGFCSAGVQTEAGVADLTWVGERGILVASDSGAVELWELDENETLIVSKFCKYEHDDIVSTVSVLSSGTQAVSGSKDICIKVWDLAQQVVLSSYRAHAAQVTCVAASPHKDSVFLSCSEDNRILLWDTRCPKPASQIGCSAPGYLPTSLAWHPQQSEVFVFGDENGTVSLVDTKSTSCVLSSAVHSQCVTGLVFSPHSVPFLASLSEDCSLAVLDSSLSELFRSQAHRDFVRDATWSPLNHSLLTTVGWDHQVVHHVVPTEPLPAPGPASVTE

IC50 (PRMT5 [1]) [µM]	IC50 (PRMT5 [2]) [µM]	IC50 (PRMT5 [3]) [µM]	IC50 (HAP1 MTAP-intact) [µM]	IC50 (HAP1 MTAP-deleted) [µM]	SMILES	SAM/MTA Ratio (PRMT5 [3])	MTAP Intact/Deleted Ratio (HAP1 MTAP-deleted)
0.5 to 5	0.05 to 0.5	0.05 to 0.5	≥ 10	≥ 10	CC(=O)N1CCC(Nc2cncc(C(=O)NC[C@H](O)CN3CCc4cc(OCc5cnco5)ccc4C3)c2)CC1 [Compound 549, (S)-5-((1-acetylpiperidin-4-yl)amino)-N-(2-hydroxy-3-(6-(oxazol-5-ylmethoxy)-3,4-dihydroisoquinolin-2(1H)-yl)propyl)nicotinamide]	A (a Ki ratio greater than or equal to 10 fold between the Ki in the presence of SAM and the Ki in the presence of MTA)	C* (an IC50 ratio of less than 3 fold between the IC50 in the HAP1 MTAP-intact cell line and the HAP1 MTAP-deleted cell line)
≥ 5	0.05 to 0.5	0.05 to 0.5	≥ 10	≥ 10	Cc1c(OCc2cnco2)ccc2c1CCN(C[C@@H](O)CNC(=O)c1ccnc(NC3CN(C(=O)C(C)C)C3)c1)C2 [Compound 550]	A (a Ki ratio greater than or equal to 10 fold between the Ki in the presence of SAM and the Ki in the presence of MTA)	C* (an IC50 ratio of less than 3 fold between the IC50 in the HAP1 MTAP-intact cell line and the HAP1 MTAP-deleted cell line)
0.5 to 5	0.05 to 0.5	0.05 to 0.5	≥ 10	≥ 10	CCCC(=O)N1CC(Nc2cc(C(=O)NC[C@H](O)CN3CCc4c(ccc(OCc5cnco5)c4C)C3)ccn2)C1 [Compound 551, (S)-2-((1-butyrylazetidin-3-yl)amino)-N-(2-hydroxy-3-(5-methyl-6-(oxazol-5-ylmethoxy)-3,4-dihydroisoquinolin-2(1H)-yl)propyl)isonicotinamide]	A (a Ki ratio greater than or equal to 10 fold between the Ki in the presence of SAM and the Ki in the presence of MTA)	C* (an IC50 ratio of less than 3 fold between the IC50 in the HAP1 MTAP-intact cell line and the HAP1 MTAP-deleted cell line)
0.5 to 5	0.05 to 0.5	0.05 to 0.5	< 1	< 1	COCCN(C)c1cc(C(=O)NC[C@H](O)CN2CCc3cc(OCc4ocnc4C)ccc3C2)cc(NC2CCC2)n1 [Compound 554]	A (a Ki ratio greater than or equal to 10 fold between the Ki in the presence of SAM and the Ki in the presence of MTA)	C* (an IC50 ratio of less than 3 fold between the IC50 in the HAP1 MTAP-intact cell line and the HAP1 MTAP-deleted cell line)
≥ 5	0.05 to 0.5	0.05 to 0.5	≥ 10	1 to 10	Cc1ncoc1COc1ccc2c(c1C)CCN(C[C@@H](O)CNC(=O)c1cc(NC3CCC3)ccn1)C2 [Compound 555, 4-(cyclobutylamino)-N-[(2S)-2-hydroxy-3-{5-methyl-6-[(4-methyl-1,3-oxazol-5-yl)methoxy]-1,2,3,4-tetrahydroisoquinolin-2-yl}propyl]pyridine-2-carboxamide]	A (a Ki ratio greater than or equal to 10 fold between the Ki in the presence of SAM and the Ki in the presence of MTA)	C* (an IC50 ratio of less than 3 fold between the IC50 in the HAP1 MTAP-intact cell line and the HAP1 MTAP-deleted cell line)
0.5 to 5	0.05 to 0.5	0.05 to 0.5	< 1	< 1	CC(=O)N1CCN(c2cc(C(=O)NC[C@H](O)CN3CCc4cc(OCc5ocnc5C)ccc4C3)cc(NC3CCC3)n2)CC1 [Compound 556, 2-(4-acetylpiperazin-1-yl)-6-(cyclobutylamino)-N-[(2S)-2-hydroxy-3-{6-[(4-methyl-1,3-oxazol-5-yl)methoxy]-1,2,3,4-tetrahydroisoquinolin-2-yl}propyl]pyridine-4-carboxamide]	A (a Ki ratio greater than or equal to 10 fold between the Ki in the presence of SAM and the Ki in the presence of MTA)	B* (an IC50 ratio greater than or equal to 3 fold but lower than 10 fold between the IC50 in the HAP1 MTAP-intact cell line and the HAP1 MTAP-deleted cell line)
0.5 to 5	0.05 to 0.5	0.05 to 0.5	≥ 10	1 to 10	CC(=O)N1CCC(Nc2ccnc(C(=O)NC[C@H](O)CN3CCc4c(ccc(OCc5cnco5)c4C)C3)c2)CC1 [Compound 559]	A (a Ki ratio greater than or equal to 10 fold between the Ki in the presence of SAM and the Ki in the presence of MTA)	C* (an IC50 ratio of less than 3 fold between the IC50 in the HAP1 MTAP-intact cell line and the HAP1 MTAP-deleted cell line)
0.5 to 5	0.05 to 0.5	0.05 to 0.5	≥ 10	1 to 10	CCCC(=O)N1CCC(Nc2cc(C(=O)NC[C@H](O)CN3CCc4c(ccc(OCc5cnco5)c4C)C3)ncn2)CC1 [Compound 560, 6-[(1-butanoylpiperidin-4-yl)amino]-N-[(2S)-2-hydroxy-3-{5-methyl-6-[(1,3-oxazol-5-yl)methoxy]-1,2,3,4-tetrahydroisoquinolin-2-yl}propyl]pyrimidine-4-carboxamide]	A (a Ki ratio greater than or equal to 10 fold between the Ki in the presence of SAM and the Ki in the presence of MTA)	B* (an IC50 ratio greater than or equal to 3 fold but lower than 10 fold between the IC50 in the HAP1 MTAP-intact cell line and the HAP1 MTAP-deleted cell line)
0.5 to 5	0.05 to 0.5	0.05 to 0.5	≥ 10	1 to 10	O=C(NC[C@H](O)CN1CCc2cc(OCc3cnco3)ccc2C1)c1ccc2c(c1)CCN(C(=O)c1ccc(Br)cc1)C2 [Compound 561]	A (a Ki ratio greater than or equal to 10 fold between the Ki in the presence of SAM and the Ki in the presence of MTA)	B* (an IC50 ratio greater than or equal to 3 fold but lower than 10 fold between the IC50 in the HAP1 MTAP-intact cell line and the HAP1 MTAP-deleted cell line)
0.5 to 5	0.05 to 0.5	0.05 to 0.5	1 to 10	1 to 10	O=C(NC[C@H](O)CN1CCc2cc(OCc3cnco3)ccc2C1)c1ccnc(NC2CN(C(=O)C3CC3)C2)c1 [Compound 563, 2-[[1-(cyclopropanecarbonyl)azetidin-3-yl]amino]-N-[(2S)-2-hydroxy-3-[6-(oxazol-5-ylmethoxy)-3,4-dihydro-1H-isoquinolin-2-yl]propyl]pyridine-4-carboxamide]	A (a Ki ratio greater than or equal to 10 fold between the Ki in the presence of SAM and the Ki in the presence of MTA)	C* (an IC50 ratio of less than 3 fold between the IC50 in the HAP1 MTAP-intact cell line and the HAP1 MTAP-deleted cell line)
0.5 to 5	0.05 to 0.5	0.05 to 0.5	1 to 10	< 1	CC(=O)N1CC(Nc2cc(C(=O)NC[C@H](O)CN3CCc4cc(OCc5ocnc5C)ccc4C3)nc(C(C)(C)C)n2)C1 [Compound 564, (S)-6-((1-acetylazetidin-3-yl)amino)-2-(tert-butyl)-N-(2-hydroxy-3-(6-((4-methyloxazol-5-yl)methoxy)-3,4-dihydroisoquinolin-2(1H)-yl)propyl)pyrimidine-4-carboxamide]	A (a Ki ratio greater than or equal to 10 fold between the Ki in the presence of SAM and the Ki in the presence of MTA)	B* (an IC50 ratio greater than or equal to 3 fold but lower than 10 fold between the IC50 in the HAP1 MTAP-intact cell line and the HAP1 MTAP-deleted cell line)
0.5 to 5	0.05 to 0.5	0.05 to 0.5	≥ 10	≥ 10	CC(C)N1CCN(c2cc(C(=O)NC[C@H](O)CN3CCc4c(ccc(OCc5cnco5)c4Cl)C3)cc(NC3CCC3)n2)CC1 [Compound 566]	A (a Ki ratio greater than or equal to 10 fold between the Ki in the presence of SAM and the Ki in the presence of MTA)	C* (an IC50 ratio of less than 3 fold between the IC50 in the HAP1 MTAP-intact cell line and the HAP1 MTAP-deleted cell line)
0.5 to 5	0.05 to 0.5	0.05 to 0.5	1 to 10	< 1	CC(=O)N1CC(Nc2cc(C(=O)NC[C@H](O)CN3CCc4cc(OCc5ocnc5C)ccc4C3)nc(C(C)C)n2)C1 [Compound 568, (S)-6-((1-acetylazetidin-3-yl)amino)-N-(2-hydroxy-3-(6-((4-methyloxazol-5-yl)methoxy)-3,4-dihydroisoquinolin-2(1H)-yl)propyl)-2-isopropylpyrimidine-4-carboxamide]	A (a Ki ratio greater than or equal to 10 fold between the Ki in the presence of SAM and the Ki in the presence of MTA)	C* (an IC50 ratio of less than 3 fold between the IC50 in the HAP1 MTAP-intact cell line and the HAP1 MTAP-deleted cell line)
